# Columns and labels:
# [1] = test system: 80 different CNS neurotransmitters receptors; assay: Screen for in vitro affinity to 80 CNS neurotransmitter receptors; assay type: binding; settings: MAP4343 10 µM; inhibition higher than 50% considered significant
# Method: (§1) MAP4343 has been screened for in vitro affinity to 80 different CNS neurotransmitters receptors using various validated binding assays.
# (§2) Table 4. In vitro affinity of MAP4343 (10 µM) for CNS neurotransmitter receptors associated with side effects and/or abuse liability. Data are the average of two individual assays for each receptor and are expressed as % inhibition of the control specific binding of the reference compound. Results showing an inhibition higher than 50% are considered to represent significant effects of the test compound.
# Serotoninergic 5-HT6 = Serotoninergic 5-HT6 (Homo sapiens, UniProt P50406); assay: CNS receptor binding assay, 5-HT6; settings: MAP4343 10 µM; [^3H] LSD; Human recombinant (CHO cells); read-out: % Inhibition of control specific binding
# Method: as §1, §2
# PC12 cells = assay: Stimulation of neuritic sprouting; assay type: cell-based; settings: PC12 cells differentiated with NGF (10 ng/ml), steroid 30 µM, 3 days; relative to PREG
# Method: Stimulation of neuritic sprouting is conducted on PC12 cells differentiated in the presence of NGF (10 ng/ml) and the steroid being tested (30 µM) for 3 days. For each condition, the average length of the longest 200 neurites […] is measured simultaneously for 3 cultures.
# [2] = molecular target: T1, Mineralocorticoid Receptor (MR) (Rattus norvegicus, UniProt P22199); assay: Radioligand binding assay, steroid hormone receptor MR; settings: MAP4343 10 µM; 4.5 nM [^3H] D-Aldosterone; Wistar Rat kidney
# T1 construct: Wistar Rat kidney; from tissue; host or cells: Wistar rat kidney
# Method: Binding affinity of 3β-methoxy-PREG (MAP4343) for receptors of steroid hormones was evaluated using radioligand binding assays.
# Table 3. Affinity of MAP4343 (10 µM) for steroid hormones receptors measured by radioligand binding assays. […] None of the results met significance criteria at concentrations used.
# Serotoninergic 5-HT5A = Serotoninergic 5-HT5A (Homo sapiens, UniProt P47898); assay: CNS receptor binding assay, 5-HT5A; settings: MAP4343 10 µM; [^3H] LSD; Human recombinant (CHO cells); read-out: % Inhibition of control specific binding
# Method: as §1, §2
# [3] = molecular target: T2, Muscarinic (Cholinergic) M2 (Homo sapiens, UniProt P08172); assay: CNS receptor binding assay, M2; settings: MAP4343 10 µM; [^3H] AF-DX 384; Human recombinant (CHO cells); read-out: % Inhibition of control specific binding
# T2 construct: expressed in transfected cells; host or cells: CHO cells
# Method: as §1, §2
# Serotoninergic 5-HT2B = Serotoninergic 5-HT2B (Homo sapiens, UniProt P41595); assay: CNS receptor binding assay, 5-HT2B; settings: MAP4343 10 µM; [^125I] (±) DOI; Human recombinant (CHO cells); read-out: % Inhibition of control specific binding
# Method: as §1, §2
# Cannabinoid CB1 = Cannabinoid CB1 (Homo sapiens, UniProt P21554); assay: CNS receptor binding assay, CB1; settings: MAP4343 10 µM; [^3H] CP 55940; Human recombinant (CHO cells); read-out: % Inhibition of control specific binding
# Method: as §1, §2
# [4] = test system: microtubule-associated protein2 (MAP2); assay: Binding (affinity) by displacement of PREG-3H; settings: index of binding
# [5] = molecular target: T3, Muscarinic (Cholinergic) M1 (Homo sapiens, UniProt P11229); assay: CNS receptor binding assay, M1; settings: MAP4343 10 µM; [^3H] pirenzepine; Human recombinant (CHO cells); read-out: % Inhibition of control specific binding
# T3 construct: expressed in transfected cells; host or cells: CHO cells
# Method: as §1, §2
# Serotoninergic 5-HT1B = Serotoninergic 5-HT1B (Rattus norvegicus, UniProt P28564); assay: CNS receptor binding assay, 5-HT1B; settings: MAP4343 10 µM; [^125I] CYP + (-) propranolol; rat cerebral cortex; read-out: % Inhibition of control specific binding
# Method: as §1, §2
# [6] = molecular target: T4, human progesterone receptor(PR) (Homo sapiens, UniProt P06401); assay: Test of progesterone receptor agonist activity (MMTV-luciferase transactivation in transfected HEK293T cells); assay type: cell-based; settings: 24 hours, increasing amounts, Figure 1
# T4 construct: expressed in transfected cells; host or cells: HEK293T
# T4 sequence (P06401 1-933): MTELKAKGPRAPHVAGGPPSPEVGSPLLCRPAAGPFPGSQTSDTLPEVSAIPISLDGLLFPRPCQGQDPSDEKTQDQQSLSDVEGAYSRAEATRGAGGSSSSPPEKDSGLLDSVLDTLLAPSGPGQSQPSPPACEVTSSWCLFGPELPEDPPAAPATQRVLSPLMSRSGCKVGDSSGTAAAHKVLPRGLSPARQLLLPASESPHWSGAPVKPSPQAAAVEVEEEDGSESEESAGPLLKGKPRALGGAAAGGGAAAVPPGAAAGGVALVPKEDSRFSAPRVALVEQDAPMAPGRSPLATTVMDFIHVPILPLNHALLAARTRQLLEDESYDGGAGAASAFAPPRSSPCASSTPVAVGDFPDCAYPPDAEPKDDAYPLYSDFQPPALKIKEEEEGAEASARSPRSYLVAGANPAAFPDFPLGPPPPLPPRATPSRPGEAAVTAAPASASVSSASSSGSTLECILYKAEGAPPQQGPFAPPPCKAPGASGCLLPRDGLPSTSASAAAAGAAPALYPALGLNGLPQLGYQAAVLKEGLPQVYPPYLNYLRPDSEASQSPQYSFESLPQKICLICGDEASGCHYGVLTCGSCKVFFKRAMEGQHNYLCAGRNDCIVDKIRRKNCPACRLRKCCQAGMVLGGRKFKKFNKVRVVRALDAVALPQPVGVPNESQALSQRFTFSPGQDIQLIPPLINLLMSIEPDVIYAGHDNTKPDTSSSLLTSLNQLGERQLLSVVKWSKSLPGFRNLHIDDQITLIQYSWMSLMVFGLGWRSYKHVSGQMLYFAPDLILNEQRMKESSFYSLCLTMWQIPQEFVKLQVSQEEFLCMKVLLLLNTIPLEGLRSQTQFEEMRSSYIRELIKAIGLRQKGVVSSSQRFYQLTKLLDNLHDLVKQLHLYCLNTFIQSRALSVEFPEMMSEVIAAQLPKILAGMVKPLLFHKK
# Method: The main experimental setting used is the following: HEK293T cells were transiently transfected, using calcium phosphate precipitation technology, with expression vectors pSG5hPR (which permits expression of human progesterone receptor(PR)), pFC31-luc (contains the luciferase gene under the control of the MMTV promoter, which is in turn activated by binding of a progestin to progesterone receptor) and pcbetagal (which permits expression of betagalactosidase), and cultured during 24 hours with increasing amounts of various compositions: • 1. […] Test of progesterone receptor […] activity: transfected cells were cultured with progesterone (1 nM) and increasing amounts of RU486 (a well-known progesterone receptor antagonist) or 3-methoxy-pregnenolone. With this setting, a compound with progesterone receptor antagonist activity competes with progesterone for the occupation of progesterone receptor and results in a progressive loss of transactivation activity when the amount of this compound is increased compared to progesterone.
# T1 sequence (P22199 whole entry): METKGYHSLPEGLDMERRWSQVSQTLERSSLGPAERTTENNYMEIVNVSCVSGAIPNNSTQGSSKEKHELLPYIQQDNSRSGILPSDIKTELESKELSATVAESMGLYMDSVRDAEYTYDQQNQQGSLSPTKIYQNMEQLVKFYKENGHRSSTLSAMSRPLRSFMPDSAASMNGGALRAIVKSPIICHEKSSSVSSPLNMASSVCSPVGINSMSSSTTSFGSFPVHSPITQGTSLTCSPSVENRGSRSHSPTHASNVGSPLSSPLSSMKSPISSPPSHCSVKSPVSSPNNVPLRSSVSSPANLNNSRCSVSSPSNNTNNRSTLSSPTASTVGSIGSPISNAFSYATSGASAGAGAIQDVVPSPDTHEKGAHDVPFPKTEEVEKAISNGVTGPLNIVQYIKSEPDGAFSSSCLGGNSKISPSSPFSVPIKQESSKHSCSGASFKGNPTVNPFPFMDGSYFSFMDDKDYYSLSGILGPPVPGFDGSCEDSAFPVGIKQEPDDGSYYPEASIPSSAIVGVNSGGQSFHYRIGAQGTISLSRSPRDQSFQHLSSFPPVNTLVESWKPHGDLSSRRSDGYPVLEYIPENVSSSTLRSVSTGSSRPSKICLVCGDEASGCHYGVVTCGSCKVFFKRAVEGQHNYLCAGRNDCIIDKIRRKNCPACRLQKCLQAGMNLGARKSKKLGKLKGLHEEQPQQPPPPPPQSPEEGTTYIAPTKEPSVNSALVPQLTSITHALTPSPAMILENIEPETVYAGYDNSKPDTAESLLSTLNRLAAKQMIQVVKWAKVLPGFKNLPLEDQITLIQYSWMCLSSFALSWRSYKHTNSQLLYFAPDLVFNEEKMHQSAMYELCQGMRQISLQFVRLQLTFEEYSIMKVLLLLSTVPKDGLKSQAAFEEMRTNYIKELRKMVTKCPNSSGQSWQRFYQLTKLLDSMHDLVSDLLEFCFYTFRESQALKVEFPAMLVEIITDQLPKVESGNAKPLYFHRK
# Serotoninergic 5-HT6, sequence (P50406 whole entry): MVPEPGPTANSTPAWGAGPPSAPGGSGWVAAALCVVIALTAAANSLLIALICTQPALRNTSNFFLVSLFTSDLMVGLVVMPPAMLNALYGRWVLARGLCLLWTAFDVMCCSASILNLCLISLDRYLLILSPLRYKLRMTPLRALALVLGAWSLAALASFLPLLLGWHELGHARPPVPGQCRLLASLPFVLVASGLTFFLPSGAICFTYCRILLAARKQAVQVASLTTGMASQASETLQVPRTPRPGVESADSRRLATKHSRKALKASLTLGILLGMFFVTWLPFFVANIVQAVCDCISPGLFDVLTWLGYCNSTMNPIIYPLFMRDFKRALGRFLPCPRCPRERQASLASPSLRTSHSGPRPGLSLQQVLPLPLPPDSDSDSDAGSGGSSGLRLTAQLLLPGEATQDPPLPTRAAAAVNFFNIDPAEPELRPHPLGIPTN
# Serotoninergic 5-HT5A, sequence (P47898 whole entry): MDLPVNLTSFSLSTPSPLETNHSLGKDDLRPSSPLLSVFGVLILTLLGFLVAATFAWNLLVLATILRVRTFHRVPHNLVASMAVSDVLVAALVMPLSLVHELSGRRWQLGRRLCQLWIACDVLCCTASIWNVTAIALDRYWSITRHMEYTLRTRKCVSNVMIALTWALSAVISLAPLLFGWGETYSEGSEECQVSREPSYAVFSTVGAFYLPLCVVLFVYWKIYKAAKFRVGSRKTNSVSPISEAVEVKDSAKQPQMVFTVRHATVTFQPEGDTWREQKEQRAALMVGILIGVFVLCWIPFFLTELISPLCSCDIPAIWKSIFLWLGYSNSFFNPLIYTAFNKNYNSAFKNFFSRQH
# Cannabinoid CB1, sequence (P21554 whole entry): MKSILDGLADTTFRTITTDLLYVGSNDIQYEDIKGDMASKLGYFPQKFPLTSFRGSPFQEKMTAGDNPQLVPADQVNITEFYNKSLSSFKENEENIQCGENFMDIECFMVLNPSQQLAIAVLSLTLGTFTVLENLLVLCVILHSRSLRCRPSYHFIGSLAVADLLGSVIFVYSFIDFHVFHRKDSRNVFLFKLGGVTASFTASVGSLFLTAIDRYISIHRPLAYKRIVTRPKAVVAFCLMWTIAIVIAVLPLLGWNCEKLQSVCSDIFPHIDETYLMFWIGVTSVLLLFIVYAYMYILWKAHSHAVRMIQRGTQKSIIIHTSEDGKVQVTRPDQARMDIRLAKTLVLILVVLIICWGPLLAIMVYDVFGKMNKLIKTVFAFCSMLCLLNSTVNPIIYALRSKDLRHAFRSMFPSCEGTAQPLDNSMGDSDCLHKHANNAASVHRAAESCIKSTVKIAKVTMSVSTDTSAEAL
# T2 sequence (P08172 whole entry): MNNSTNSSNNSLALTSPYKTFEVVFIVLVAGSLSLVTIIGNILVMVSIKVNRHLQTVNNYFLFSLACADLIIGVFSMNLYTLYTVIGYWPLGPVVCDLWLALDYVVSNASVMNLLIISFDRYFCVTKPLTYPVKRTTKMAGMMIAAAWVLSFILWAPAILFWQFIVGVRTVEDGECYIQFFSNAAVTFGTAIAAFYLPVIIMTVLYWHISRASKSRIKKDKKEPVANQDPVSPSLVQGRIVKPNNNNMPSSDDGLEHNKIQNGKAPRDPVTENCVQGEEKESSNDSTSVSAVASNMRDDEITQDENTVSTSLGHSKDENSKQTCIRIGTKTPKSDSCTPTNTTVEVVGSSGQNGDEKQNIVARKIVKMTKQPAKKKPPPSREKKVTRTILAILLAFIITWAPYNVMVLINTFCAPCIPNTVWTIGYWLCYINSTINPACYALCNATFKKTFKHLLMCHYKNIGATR
# T3 sequence (P11229 whole entry): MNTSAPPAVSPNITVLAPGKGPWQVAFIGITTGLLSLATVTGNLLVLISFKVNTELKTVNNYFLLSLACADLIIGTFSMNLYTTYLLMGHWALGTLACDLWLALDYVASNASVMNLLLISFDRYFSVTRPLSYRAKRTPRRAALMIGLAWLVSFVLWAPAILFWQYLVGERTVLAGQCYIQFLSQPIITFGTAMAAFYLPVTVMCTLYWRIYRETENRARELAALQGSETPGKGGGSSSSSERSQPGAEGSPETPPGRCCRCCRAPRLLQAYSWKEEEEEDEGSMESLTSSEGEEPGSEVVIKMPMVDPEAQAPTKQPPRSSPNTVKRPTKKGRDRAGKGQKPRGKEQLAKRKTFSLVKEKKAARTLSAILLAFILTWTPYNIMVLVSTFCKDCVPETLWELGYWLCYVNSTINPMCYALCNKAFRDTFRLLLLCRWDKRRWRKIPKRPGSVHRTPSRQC
# Serotoninergic 5-HT1B, sequence (P28564 whole entry): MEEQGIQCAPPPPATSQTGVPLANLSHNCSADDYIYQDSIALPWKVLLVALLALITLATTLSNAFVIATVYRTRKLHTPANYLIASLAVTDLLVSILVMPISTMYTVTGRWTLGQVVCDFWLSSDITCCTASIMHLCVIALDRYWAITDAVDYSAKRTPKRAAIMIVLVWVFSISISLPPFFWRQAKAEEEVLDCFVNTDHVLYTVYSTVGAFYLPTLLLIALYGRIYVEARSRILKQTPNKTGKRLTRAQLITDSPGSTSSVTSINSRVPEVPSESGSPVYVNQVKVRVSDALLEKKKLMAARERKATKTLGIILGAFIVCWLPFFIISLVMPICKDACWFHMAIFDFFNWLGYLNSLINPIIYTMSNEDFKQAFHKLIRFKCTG
# Serotoninergic 5-HT2B, sequence (P41595 whole entry): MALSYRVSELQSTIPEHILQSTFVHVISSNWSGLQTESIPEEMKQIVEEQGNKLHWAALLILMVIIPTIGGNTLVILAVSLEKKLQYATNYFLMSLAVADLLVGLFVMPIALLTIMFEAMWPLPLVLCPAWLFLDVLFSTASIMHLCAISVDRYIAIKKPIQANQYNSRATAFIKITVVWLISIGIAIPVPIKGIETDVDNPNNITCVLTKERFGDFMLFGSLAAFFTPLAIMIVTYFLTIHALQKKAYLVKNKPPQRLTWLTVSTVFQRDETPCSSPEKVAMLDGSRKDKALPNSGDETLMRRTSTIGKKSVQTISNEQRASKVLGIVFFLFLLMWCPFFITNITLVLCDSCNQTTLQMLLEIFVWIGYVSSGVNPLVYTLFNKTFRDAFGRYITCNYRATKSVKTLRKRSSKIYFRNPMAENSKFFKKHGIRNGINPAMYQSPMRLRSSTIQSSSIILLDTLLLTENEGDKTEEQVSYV
smiles,measurement,setting,value
"CO[C@H]1CC[C@@]2(C)C(=CC[C@H]3[C@@H]4CC[C@H](C(C)=O)[C@@]4(C)CC[C@@H]32)C1 (stereo in doubt) [MAP4343, 3β-methoxy-pregna-5-ene-20-one]",in vitro affinity for tested receptors,[1],no significant affinity for any tested receptor
same,inhibition at 10 µM,Serotoninergic 5-HT6,12%
same,Neuritic sprouting,PC12 cells,+++
same,% inhibition,[2],25%
same,inhibition at 10 µM,[2],< 25%
same,inhibition at 10 µM,Serotoninergic 5-HT5A,-5%
same,inhibition at 10 µM,[3],20%
same,inhibition at 10 µM,Serotoninergic 5-HT2B,-4%
same,inhibition at 10 µM,Cannabinoid CB1,12%
same,Affinity,[4],100% of PREG
same,inhibition at 10 µM,[5],-3%
same,inhibition at 10 µM,Serotoninergic 5-HT1B,4%
same,progesterone receptor agonist activity (transactivation activity leading to the expression of luciferase),[6],does not permit such a transactivation activity

# From patent EP3436024B1, “3-BETA-METHOXY-PREG FOR USE IN THE TREATMENT OF TREATMENT RESISTANT DEPRESSION” (Mapreg, priority 2016, dated 2017)
